Reference: patent US5338869A, “Hydroxyphenylpropionic ester having novel crystal structure” (Sumitomo Chemical Company, Limited, priority 1992, dated 1994)

Tests used:
Format in all cases: physicochemical
[1] = Hygroscopicity: moisture content after exposure to 100% relative humidity (Karl Fischer method); conditions: for Hygroscopicity (Water content in % by weight): room temperature, relative humidity 100%
Excerpt: Consequently, the crystals can be used conveniently and advantageously with no additional treatment, such as re-drying and moisture-proof packing, even in such uses as the production of polyurethane, which is susceptible to the influence of moisture.

[2] = Solubility in organic solvents at 20° C.
[3] = Angle of spatula of crystals
[4] = Bulk specific gravity (packed state)
[5] = Angle of repose of crystals

Cc1cc(CCC(=O)OCC(C)(C)C2OCC3(CO2)COC(C(C)(C)COC(=O)CCc2cc(C)c(O)c(C(C)(C)C)c2)OC3)cc(C(C)(C)C)c1O (stereo not shown) [δ-Crystal, 3,9-bis[2-{3-(3-t-butyl-4-hydroxy-5-methylphenyl)propionyloxy}-1,1-dimethylethyl]-2,4,8,10-tetraoxaspiro[5.5]undecane, reference compound]
Hygroscopicity (Water content in % by weight) ([1]; exposure period 0 Days): 0.10 % by weight
Hygroscopicity (Water content in % by weight) ([1]; exposure period 1 Day): 0.47 % by weight
Hygroscopicity (Water content in % by weight) ([1]; exposure period 50 Days): 0.50 % by weight
Hygroscopicity (Water content in % by weight) ([1]; exposure period 100 Days): 0.45 % by weight
Solubility at 20° C. ([2]; Cyclohexane): 0.06 g/100 g solvent
Solubility at 20° C. ([2]; Methanol): 9 g/100 g solvent
Solubility at 20° C. ([2]; Toluene): 15 g/100 g solvent

Cc1cc(CCC(=O)OCC(C)(C)C2OCC3(CO2)COC(C(C)(C)COC(=O)CCc2cc(C)c(O)c(C(C)(C)C)c2)OC3)cc(C(C)(C)C)c1O (stereo not shown) [Example 1, 3,9-bis[2-{3-(3-t-butyl-4-hydroxy-5-methylphenyl)propionyloxy}-1,1-dimethylethyl]-2,4,8,10-tetraoxaspiro[5,5]undecane]
Angle of Spatula [3]: 57 °
Bulk Specific Gravity [4]: 0.59
Angle of Repose [5]: 45 °

Cc1cc(CCC(=O)OCC(C)(C)C2OCC3(CO2)COC(C(C)(C)COC(=O)CCc2cc(C)c(O)c(C(C)(C)C)c2)OC3)cc(C(C)(C)C)c1O (stereo not shown) [ε-Crystal, 3,9-bis[2-{3-(3-t-butyl-4-hydroxy-5-methylphenyl)propionyloxy}-1,1-dimethylethyl]-2,4,8,10-tetraoxaspiro[5.5]undecane]
hygroscopicity (in words) ([1]; compared with the prior αβ- and δ-crystals): smaller in hygroscopicity than the prior αβ- and δ-crystals
Hygroscopicity (Water content in % by weight) ([1]; exposure period 0 Days): 0.04 % by weight
Hygroscopicity (Water content in % by weight) ([1]; exposure period 1 Day): 0.06 % by weight
Hygroscopicity (Water content in % by weight) ([1]; exposure period 50 Days): 0.05 % by weight
Hygroscopicity (Water content in % by weight) ([1]; exposure period 100 Days): 0.05 % by weight
Solubility at 20° C. ([2]; Cyclohexane): 0.02 g/100 g solvent
Solubility at 20° C. ([2]; Methanol): 4 g/100 g solvent
Solubility at 20° C. ([2]; Toluene): 9 g/100 g solvent
solubility in organic solvents (in words) ([2]; compared with the δ-crystals and the αβ-crystals): lower solubility in organic solvents than the δ-crystals and the αβ-crystals

Cc1cc(CCC(=O)OCC(C)(C)C2OCC3(CO2)COC(C(C)(C)COC(=O)CCc2cc(C)c(O)c(C(C)(C)C)c2)OC3)cc(C(C)(C)C)c1O (stereo not shown) [Comparative Example 2, 3,9-bis[2-{3-(3-t-butyl-4-hydroxy-5-methylphenyl)propionyloxy}-1,1-dimethylethyl]-2,4,8,10-tetraoxaspiro[5.5]undecane, reference compound]
Angle of Spatula [3]: 74 °
Bulk Specific Gravity [4]: 0.40
Angle of Repose [5]: 53 °

Cc1cc(CCC(=O)OCC(C)(C)C2OCC3(CO2)COC(C(C)(C)COC(=O)CCc2cc(C)c(O)c(C(C)(C)C)c2)OC3)cc(C(C)(C)C)c1O (stereo not shown) [Example 2, 3,9-bis[2-{3-(3-t-butyl-4-hydroxy-5-methylphenyl)propionyloxy}-1,1-dimethylethyl]-2,4,8,10-tetraoxaspiro[5.5]undecane]
Angle of Spatula [3]: 58 °
Bulk Specific Gravity [4]: 0.60
Angle of Repose [5]: 45 °

Cc1cc(CCC(=O)OCC(C)(C)C2OCC3(CO2)COC(C(C)(C)COC(=O)CCc2cc(C)c(O)c(C(C)(C)C)c2)OC3)cc(C(C)(C)C)c1O (stereo not shown) [Example 3, 3,9-bis[2-{3-(3-t-butyl-4-hydroxy-5-methylphenyl)propionyloxy}-1,1-dimethylethyl]-2,4,8,10-tetraoxaspiro[5.5]undecane]
Angle of Spatula [3]: 58 °
Bulk Specific Gravity [4]: 0.66
Angle of Repose [5]: 47 °

Cc1cc(CCC(=O)OCC(C)(C)C2OCC3(CO2)COC(C(C)(C)COC(=O)CCc2cc(C)c(O)c(C(C)(C)C)c2)OC3)cc(C(C)(C)C)c1O (stereo not shown) [Comparative Example 1, 3,9-bis[2-{3-(3-t-butyl-4-hydroxy-5-methylphenyl)propionyloxy}-1,1-dimethylethyl]-2,4,8,10-tetraoxaspiro[5.5]undecane, reference compound]
Angle of Spatula [3]: 65 °
Bulk Specific Gravity [4]: 0.43
Angle of Repose [5]: 50 °
